pIC50: −log10 of the molar value.
Molecular target: TrkA receptor (Homo sapiens (Human), UniProt P04629)
Test: DiscoverX PathHunter TrkA functional assay (U2OS cells, NGF stimulated)
Format: cell-based
Conditions: U2OS cells expressing TrkA-Prolink and Shc1-EA; compound 1 hour, then EC80 of NGF for 3 hours; luminescence
Procedure: TrkA functional activity was measured using a DiscoverX PathHunter assay. In this assay, U2OS cells are express TrkA receptor as a fusion with the weakly complementing fragment of B-galactosidase, which DiscoverX calls “Prolink (PK)”; additionally, Shc1 is fused with a larger fragment, which is called “Enzyme Acceptor (EA)”. Activation of the TrkA receptor, upon NGF addition, results in the kinase domain being phosphorylated, resulting in subsequent recruitment of Shc1-EA protein. That recruitment results in an active B-galactosidase enzyme that is detected by addition of a chemiluminescent substrate.
All reagents were purchased from DiscoverX, except for the receptor agonists (NGF, BDNF, NT3) which were purchased from Peprotech. Cells were expanded and frozen into cryovials (TrkA p75 @ passage 13, 1.5×10^7 cells/vial; TrkC p75 @ passage 11, 1.5×10^7 cells/vial in InVitrogen Recovery Cell Freezing media), and stored in the vapor phase of liquid nitrogen, and thawed immediately before use. Thawed cells were added to a 384-well plate (BD Falcon 384-well white/clear, TC surface 120 uL assay plates (353963), 20 uL of 0.375e6 cells/mL=>7500 cells/well), and allowed to incubate overnight. Compound (10 mM starting dose: 202.5 nL compound yielding 0.81% DMSO final in total assay volume and starting doses 81 uM) was added the following morning and allowed to incubate on cells for 1 hour. Then, 5 uL EC80 of agonist (NGF for TrkA; BDNF for TrkB; NT3 for TrkC) was added and allowed to incubate for 3 hours at room temperature. DiscoverX PathHunter detection reagent is added (12 uL to plate and components diluted in parts as per kit instructions) and the plate is further incubated for 1 hour in the dark. The plate is read via luminescence on the Perkin Elmer Envision.

TrkA receptor, sequence (P04629 33-796): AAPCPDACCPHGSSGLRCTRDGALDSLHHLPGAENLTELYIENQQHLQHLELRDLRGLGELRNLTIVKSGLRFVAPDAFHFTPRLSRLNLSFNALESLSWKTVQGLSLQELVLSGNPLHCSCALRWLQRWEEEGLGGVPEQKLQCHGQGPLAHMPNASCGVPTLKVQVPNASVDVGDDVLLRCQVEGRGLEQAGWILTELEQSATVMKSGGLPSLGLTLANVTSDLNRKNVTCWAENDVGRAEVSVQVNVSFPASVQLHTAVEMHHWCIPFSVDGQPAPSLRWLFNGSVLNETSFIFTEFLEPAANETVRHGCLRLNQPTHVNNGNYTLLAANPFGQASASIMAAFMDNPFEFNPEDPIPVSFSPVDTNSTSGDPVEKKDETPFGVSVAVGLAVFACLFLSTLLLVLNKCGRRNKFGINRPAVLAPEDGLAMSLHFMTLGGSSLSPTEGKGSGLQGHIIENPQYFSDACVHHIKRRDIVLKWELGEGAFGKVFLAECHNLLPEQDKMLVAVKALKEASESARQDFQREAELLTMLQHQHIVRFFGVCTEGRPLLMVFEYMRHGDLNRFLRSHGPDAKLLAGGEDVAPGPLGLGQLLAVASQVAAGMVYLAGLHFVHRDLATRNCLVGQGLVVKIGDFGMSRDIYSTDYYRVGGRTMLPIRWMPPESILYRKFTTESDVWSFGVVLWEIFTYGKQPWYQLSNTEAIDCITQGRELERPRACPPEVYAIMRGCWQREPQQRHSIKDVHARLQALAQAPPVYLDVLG

| SMILES | pIC50 |
| --- | --- |
| O=C(Nc1ccccn1)Nc1cc(-c2ccncc2)nn1-c1ccccc1 [Compound 9, 1-(1-phenyl-3-pyridin-4-yl-1H-pyrazol-5-yl)-3-pyridin-2-ylurea] | 6.46 |
| Cc1nc(-c2ccccc2)c(NC(=O)Nc2c(-c3ccccc3)nc(C)n2C)s1 [Compound 34, 1-(1,2-dimethyl-4-phenyl-1H-imidazol-5-yl)-3-(2-methyl-4-phenyl-1,3-thiazol-5-yl)urea] | 5.39 |
| Cn1ncc(NC(=O)NCc2ccccc2OC(F)(F)F)c1-c1ccccc1 [Compound 46, 1-(1-methyl-5-phenyl-1H-pyrazol-4-yl)-3-[2-(trifluoromethoxy)benzyl]urea] | 5.80 |
| Cc1ncc(NC(=O)Nc2sc(C)nc2-c2ccccc2)c(-c2ccccc2)n1 [Compound 36, 1-(2-methyl-4-phenylpyrimidin-5-yl)-3-(2-methyl-4-phenyl-1,3-thiazol-5-yl)urea] | 5.64 |
| O=C(Nc1c(-c2ccccc2)nc2ccccn12)Nc1c(-c2ccccc2)nc2ccccn12 [Compound 1, 1,3-bis(2-phenylimidazo[1,2-a]pyridin-3-yl)urea] | 7.09 |
| Cc1nc(-c2ccccc2)c(NC(=O)Nc2c(-c3ccccc3)ncn2C)s1 [Compound 33, 1-(1-methyl-4-phenyl-1H-imidazol-5-yl)-3-(2-methyl-4-phenyl-1,3-thiazol-5-yl)urea] | 5.40 |
| O=C(Nc1c(-c2ccccc2)nc2ccccn12)Nc1c(-c2ccccc2)nc2ncccn12 [Compound 30, 1-(2-phenylimidazo[1,2-a]pyridin-3-yl)-3-(2-phenylimidazo[1,2-a]pyrimidin-3-yl)urea] | 5.82 |
| Cc1onc(-c2ccccc2)c1NC(=O)NCc1ccccc1C(F)(F)F [Compound 14, 1-(5-methyl-3-phenylisoxazol-4-yl)-3-[2-(trifluoromethyl)benzyl]urea] | 6.46 |
| O=C(Nc1cccc2ccccc12)Nc1c(-c2ccccc2)nc2sccn12 [Compound 16, 1-naphthalen-1-yl-3-(6-phenylimidazo[2,1-b][1,3]thiazol-5-yl)urea] | 6.54 |
| Cc1nc(-c2ccccc2)c(NC(=O)Nc2cccnc2-c2ccccc2)s1 [Compound 37, 1-(2-methyl-4-phenyl-1,3-thiazol-5-yl)-3-(2-phenylpyridin-3-yl)urea] | 5.74 |
| Cc1ncc(NC(=O)N[C@@H](C)C2CCCCC2)c(-c2ccccc2)n1 [Compound 41, 1-[(1S)-1-cyclohexylethyl]-3-(2-methyl-4-phenylpyrimidin-5-yl)urea] | 5.68 |
| Cc1ncc(NC(=O)Nc2ccccc2-c2ccccc2)c(-c2ccccc2)n1 [Compound 13, 1-biphenyl-2-yl-3-(2-methyl-4-phenylpyrimidin-5-yl)urea] | 5.64 |
| O=C(Nc1ccc(C(F)(F)F)cc1Cl)Nc1c(-c2ccccc2)nc2ccccn12 [Compound 22, 1-[2-chloro-4-(trifluoromethyl)phenyl]-3-(2-phenylimidazo[1,2-a]pyridin-3-yl)urea] | 5.38 |
| Cc1ncc(NC(=O)Nc2cccc3ccccc23)c(-c2ccccc2)n1 [Compound 15, 1-(2-methyl-4-phenylpyrimidin-5-yl)-3-naphthalen-1-ylurea] | 5.39 |
| O=C(Nc1cccnc1-c1ccccc1)Nc1c(-c2ccccc2)nc2ccccn12 [Compound 24, 1-(2-phenylimidazo[1,2-a]pyridin-3-yl)-3-(2-phenylpyridin-3-yl)urea] | 6.35 |
| Cc1cc(NC(=O)Nc2cc(C)nn2-c2ccccc2)n(-c2ccccc2)n1 [Compound 3, 1,3-bis(3-methyl-1-phenyl-1H-pyrazol-5-yl)urea] | 5.57 |
| Cc1ncc(NC(=O)Nc2c(-c3ccccc3)nc3ccccn23)c(-c2ccccc2)n1 [Compound 21, 1-(2-methyl-4-phenylpyrimidin-5-yl)-3-(2-phenylimidazo[1,2-a]pyridin-3-yl)urea] | 6.82 |
| O=C(NCc1cc(F)ccc1C(F)(F)F)Nc1ccnn1-c1ccccc1 [Compound 38, 1-[5-fluoro-2-(trifluoromethyl)benzyl]-3-(1-phenyl-1H-pyrazol-5-yl)urea] | 5.96 |
| Cc1nc(-c2ccccc2)c(NC(=O)Nc2c(-c3ccccc3)nc3ccccn23)s1 [Compound 26, 1-(2-methyl-4-phenyl-1,3-thiazol-5-yl)-3-(2-phenylimidazo[1,2-a]pyridin-3-yl)urea] | 7.32 |
| COc1ccc(NC(=O)Nc2cc(C)nn2-c2ccccc2)nc1 [Compound 11, 1-(5-methoxypyridin-2-yl)-3-(3-methyl-1-phenyl-1H-pyrazol-5-yl)urea] | 5.47 |

| SMILES | pIC50 |
| --- | --- |
| Cc1cc(NC(=O)Nc2cccc3ccccc23)n(-c2ccccc2)n1 [Compound 4, 1-(3-methyl-1-phenyl-1H-pyrazol-5-yl)-3-naphthalen-1-ylurea] | 6.23 |
| Cn1ncc(NC(=O)NCc2ccccc2C(F)(F)F)c1-c1ccccc1 [Compound 42, 1-(1-methyl-5-phenyl-1H-pyrazol-4-yl)-3-[2-(trifluoromethyl)benzyl]urea] | 5.85 |
| Cc1nc(-c2ccccc2)c(NC(=O)Nc2sc(C)nc2-c2ccccc2)s1 [Compound 35, 1,3-bis(2-methyl-4-phenyl-1,3-thiazol-5-yl)urea] | 6.21 |
| O=C(Nc1ccccn1)Nc1cc(-c2ccccc2)nn1-c1ccccc1 [Compound 2, 1-(1,3-diphenyl-1H-pyrazol-5-yl)-3-pyridin-2-ylurea] | 6.80 |
| O=C(Nc1c(-c2ccccc2)nc2ccccn12)Nc1c(-n2cccn2)nc2ccccn12 [Compound 29, 1-(2-phenylimidazo[1,2-a]pyridin-3-yl)-3-[2-(1H-pyrazol-1-yl)imidazo[1,2-a]pyridin-3-yl]urea] | 5.85 |
| O=C(NCc1ccc(F)cc1C(F)(F)F)Nc1ccnn1-c1ccccc1 [Compound 39, 1-[4-fluoro-2-(trifluoromethyl)benzyl]-3-(1-phenyl-1H-pyrazol-5-yl)urea] | 5.85 |
| Cc1cc(NC(=O)Nc2ccccc2-c2ccccc2)n(-c2ccccc2)n1 [Compound 6, 1-biphenyl-2-yl-3-(3-methyl-1-phenyl-1H-pyrazol-5-yl)urea] | 6.38 |
| Cc1ncc(NC(=O)Nc2ccccn2)c(-c2ccccc2)n1 [Compound 20, 1-(2-methyl-4-phenylpyrimidin-5-yl)-3-pyridin-2-ylurea] | 5.40 |
| O=C(Nc1ccc(C(F)(F)F)cc1)Nc1c(-c2ccccc2)nc2ccccn12 [Compound 23, 1-(2-phenylimidazo[1,2-a]pyridin-3-yl)-3-[4-(trifluoromethyl)phenyl]urea] | 5.37 |
| Cc1cc(NC(=O)Nc2cc(Br)ccn2)n(-c2ccccc2)n1 [Compound 8, 1-(4-bromopyridin-2-yl)-3-(3-methyl-1-phenyl-1H-pyrazol-5-yl)urea] | 5.52 |
| Cc1cc(NC(=O)Nc2cccc(Br)n2)n(-c2ccccc2)n1 [Compound 5, 1-(6-bromopyridin-2-yl)-3-(3-methyl-1-phenyl-1H-pyrazol-5-yl)urea] | 5.32 |
| Cc1ncc(NC(=O)NCc2cc(F)ccc2C(F)(F)F)c(-c2ccccc2)n1 [Compound 43, 1-[5-fluoro-2-(trifluoromethyl)benzyl]-3-(2-methyl-4-phenylpyrimidin-5-yl)urea] | 5.85 |
| Cc1onc(-c2ccccc2)c1NC(=O)NCc1ccccc1SC(F)(F)F [Compound 45, 1-(5-methyl-3-phenylisoxazol-4-yl)-3-{2-[(trifluoromethyl)sulfanyl]benzyl}urea] | 6.38 |
| Cc1cc(NC(=O)Nc2cccc(C)c2C)n(-c2ccccc2)n1 [Compound 7, 1-(2,3-dimethylphenyl)-3-(3-methyl-1-phenyl-1H-pyrazol-5-yl)urea] | 5.32 |
| Cn1ccnc1-c1cccc(NC(=O)Nc2c(-c3ccccc3)nc3ccccn23)c1 [Compound 27, 1-[3-(1-methyl-1H-imidazol-2-yl)phenyl]-3-(2-phenylimidazo[1,2-a]pyridin-3-yl)urea] | 5.80 |
| CCOC(=O)c1nc2ccccn2c1NC(=O)Nc1c(-c2ccccc2)nc2ccccn12 [Compound 28, ethyl 3-{[(2-phenylimidazo[1,2-a]pyridin-3-yl)carbamoyl]amino} imidazo[1,2-a]pyridine-2-carboxylate] | 6.34 |
| CNC(=O)c1nc2ccccn2c1NC(=O)Nc1c(-c2ccccc2)nc2ccccn12 [Compound 32, N-methyl-3-{[(2-phenylimidazo[1,2-a]pyridin-3-yl)carbamoyl]amino}imidazo[1,2-a]pyridine-2-carboxamide] | 6.00 |
| CSc1ncc(NC(=O)Nc2cnc(SC)nc2-c2ccccc2)c(-c2ccccc2)n1 [Compound 18, 1,3-bis[2-(methylsulfanyl)-4-phenylpyrimidin-5-yl]urea] | 6.55 |
| Cc1ncc(NC(=O)NCc2ccccc2SC(F)(F)F)c(-c2ccccc2)n1 [Compound 40, 1-(2-methyl-4-phenylpyrimidin-5-yl)-3-{2-[(trifluoromethyl)sulfanyl]benzyl}urea] | 6.17 |
| Cc1cc(NC(=O)Nc2c(-c3ccccc3)nc3ccccn23)n(-c2ccccc2)n1 [Compound 25, 1-(3-methyl-1-phenyl-1H-pyrazol-5-yl)-3-(2-phenylimidazo[1,2-a]pyridin-3-yl)urea] | 6.28 |
